Biological target: Leukotriene B4 receptor (Cavia porcellus)
Assay: Tested for inhibition of specific binding of [3H]LTB4 to guinea pig lung membranes expressing LTB4 receptor

Ki | Compound
12 nM | CCc1cc(-c2ccccc2)c(O)cc1OCCCOc1ccc2c(=O)c3ccccc3oc2c1CCC(=O)O [3-{3-[3-(5-Ethyl-2-hydroxy-biphenyl-4-yloxy)-propoxy]-9-oxo-9H-xanthen-4-yl}-propionic acid]
0.11 nM | CCc1cc(-c2ccccc2)c(O)cc1OCCCOc1ccc2c(=O)c3cc(C(=O)O)ccc3oc2c1CCC(=O)O [5-(2-Carboxy-ethyl)-6-[3-(5-ethyl-2-hydroxy-biphenyl-4-yloxy)-propoxy]-9-oxo-9H-xanthene-2-carboxylic acid]
